Data as given in patent US20240374738A1, “BIFUNCTIONAL COMPOUND CAPABLE OF DEGRADING RECEPTOR TYROSINE KINASE AND APPLICATION THEREOF” (TAIBIDI PHARMACEUTICAL TECHNOLOGY (SHIJIAZHUANG) CO., LTD., priority 2023, published 2024).

Legend:
Format in all cases: cell-based
[1] = test system: MKN45; assay: Growth inhibition of gastric cancer cells MKN45 (CCK-8); settings: Homo sapiens, MKN-45, half inhibitory concentration, 72 hours
Protocol: (§1) Inoculate gastric cancer cells (SNU5 or MKN45) into a 96 well plate at a concentration of […], with 100 μl added to each well. Incubate for 30 minutes. Observe the cell status under a microscope. Prepare compounds, weigh a certain amount of the series compounds or reference drug cabozantinib of this patent, first prepare a high concentration mother liquor with pure DMSO, and use gradient dilution method to prepare a concentration of 200 μM, 60 μM, 20 μM, 6 μM, 2 μM, 600 nM, 200 nM, 0 nM drug solution, shake to make it fully mixed. The control group was prepared with cabozantinib using the same solvent and method.
(§2) After preparation, add 1 μl of drug solution to each well of the 96 well plate, and then add 100 μl of culture medium. Repeat each dose three times. Gently shake to allow the cells and medication to come into full contact and incubate in the incubator for 72 hours. 72 hours later, remove and color with CCK-8 reagent kit. Add 20 μl of CCK-8 reagent to each well, gently shake well, and incubate in the incubator for 1 hour. After 1 hour, remove and measure the absorbance of each well using an enzyme-linked immunosorbent assay (ELISA) reader at a wavelength of 450 nm.
(§3) According to the formula: Cell growth inhibition rate=[1−(absorbance of experimental group absorbance of culture medium control group)/(absorbance of blank control group−absorbance of culture medium control group)]×100%. It can be concluded that the compound has the ability to inhibit the growth of gastric cancer cells at the current dose and time.
(§4) Draw a graph based on the gradient of concentration and use GraphPad Prism 9 software (GraphPad Software, La Jolla, CA) to calculate the maximum inhibitory concentration (IC50) at 50%.
(§5) Referring to steps 1 and 2 of this embodiment, the inhibitory effect of the compound of the present invention on the growth of cancer cells and the degradation effect of target proteins were measured, and the following results were obtained (see Table 2 below).
(§6) The growth inhibitory effects of the compound of the present invention on tumor cell lines MKN45 and SNU5 were measured. The activity is expressed as half inhibitory concentration (C50). The results are shown in Table 2 below; When the half inhibitory concentration is less than or equal to 100 nM, the compound activity is labeled as “++++”; When the half inhibitory concentration is greater than 100 nM and less than 500 nM, the compound activity is labeled as […] and less than 1000 nM, the compound activity is labeled as “++”; When the half inhibitory concentration is greater than 1000 nM and less than 3000 nM, the compound activity is marked as “+”; When the half inhibitory concentration is greater than 3000 nM, the compound activity is marked as […]

[2] = molecular target: DDR1 (Homo sapiens, UniProt Q08345); assay: Degradation of DDR1 in tumor cell MKN45 (Western blot); set-up: The degradation activity of the compounds against DDR1 in the MKN45 cell line; endogenous in cells; host or cells: MKN45; settings: MKN-45, maximum degradation percentage, MKN45 cells, 24 hours
Protocol: Western blot experiment: Take gastric cancer cells (MKN45) and inoculate them into a 6-well plate at a concentration of […], adding 2 ml to each well and incubating for 24 hours.
The next day, observe the cells under a microscope to confirm their status. Prepare compounds, weigh a certain amount of the series compounds or reference drug cabozantinib from this patent, first prepare a high concentration mother liquor with pure DMSO, and use gradient dilution method to prepare compound concentrations of 2 mM, 200 μM, 100 μM, 20 μM, 2 μM, 200 nM, and 0 nM. The final concentration of DMSO is 0.5%. Shake to thoroughly mix. Add 10 μl of solution to each well. After incubation for 24 hours, remove the cells and use a pipette to aspirate the suspended cells into a 1.5 ml centrifuge tube. Centrifuge at 5000 rpm for 10 minutes to precipitate the cells. Carefully remove the cell precipitate from the culture medium, add 1 ml of PBS and shake slightly. After repeated cleaning for 3 times, dry the residue. Add 150 μl of RIPA lysate pre mixed with 1% PMSF, blow to allow the lysate to fully contact the cells, and incubate on ice for 10 minutes. Centrifuge at 12000 rpm for 10 minutes, extract the supernatant, use the BCA protein quantification kit to determine and homogenize the sample loading.
Mix BCA-A in a 50:1 ratio Prepare working solution with B solution, dilute the sample by 5 times, then pipette 20 μl onto a 96 well ELISA plate. Add 200 μl of pre mixed BCA working solution and incubate at 37° C. for 20 minutes. Measure the A562 nm absorbance value using an ELISA reader and substitute it into the protein standard curve formula to obtain the sample concentration. After calculating the required volume for loading […] of sample, divide the sample into 1.5 ml centrifuge tubes. Add 10 μl of sample buffer to each tube and mix well. Heat in a 95° C. metal bath for 5 minutes to denature the protein.
Take 4-20% gradient pre adhesive and fix it on the adhesive rack. Add electrophoresis solution to the slot and remove the comb, Marker and protein samples were loaded, and after 30 minutes of electrophoresis at 80V, the voltage was adjusted to 120V for electrophoresis, The marker band stops electrophoresis at the forefront of the gel. Take out the adhesive block and cut it to the appropriate size, The PVDF membrane was cut and activated in methanol, and after activation, the PVDF membrane was equilibrated in a membrane transfer equilibrium solution for 1 minute. Using sponge pads The sequence of PVDF film, adhesive, and sponge pad is placed in the splint and placed in the eBlot equipment for rapid wet rotation. Remove the membrane and seal it in 5% skim milk powder dissolved in 1×TBST for 1 hour. Cut the membrane according to the molecular weight of the target protein and internal reference protein, and place it in primary antibody diluted with 1×TBST. Shake overnight at 4° C.
The next day, transfer the band to 1×TBST for 3 washes, then add a specific dilution of the secondary antibody and shake it for 1.5 hours. Transfer the band again to 1×TBST for 3 washes, prepare ECL color solution, place the membrane in the imaging system, cover the surface with ECL color solution, and take photos of the membrane using the imaging system.
Using the SHST analysis system to analyze the results, measure the grayscale values of each band of the target protein and internal reference protein. Normalize the grayscale values of the target protein/corresponding lane GAPDH grayscale values, and perform quantitative analysis according to the protein amount=experimental group grayscale value/blank control group grayscale value.
The activity of the compound of the present invention in degrading DDR in tumor cell line MKN45 was measured. […]

[3] = test system: SNU5; assay: Growth inhibition of gastric cancer cells SNU5 (CCK-8); settings: Homo sapiens, SNU-5, half inhibitory concentration, 72 hours
Protocol: as §1, §2, §3, §4, §5, §6

Sequence of DDR1 (Q08345 19-913): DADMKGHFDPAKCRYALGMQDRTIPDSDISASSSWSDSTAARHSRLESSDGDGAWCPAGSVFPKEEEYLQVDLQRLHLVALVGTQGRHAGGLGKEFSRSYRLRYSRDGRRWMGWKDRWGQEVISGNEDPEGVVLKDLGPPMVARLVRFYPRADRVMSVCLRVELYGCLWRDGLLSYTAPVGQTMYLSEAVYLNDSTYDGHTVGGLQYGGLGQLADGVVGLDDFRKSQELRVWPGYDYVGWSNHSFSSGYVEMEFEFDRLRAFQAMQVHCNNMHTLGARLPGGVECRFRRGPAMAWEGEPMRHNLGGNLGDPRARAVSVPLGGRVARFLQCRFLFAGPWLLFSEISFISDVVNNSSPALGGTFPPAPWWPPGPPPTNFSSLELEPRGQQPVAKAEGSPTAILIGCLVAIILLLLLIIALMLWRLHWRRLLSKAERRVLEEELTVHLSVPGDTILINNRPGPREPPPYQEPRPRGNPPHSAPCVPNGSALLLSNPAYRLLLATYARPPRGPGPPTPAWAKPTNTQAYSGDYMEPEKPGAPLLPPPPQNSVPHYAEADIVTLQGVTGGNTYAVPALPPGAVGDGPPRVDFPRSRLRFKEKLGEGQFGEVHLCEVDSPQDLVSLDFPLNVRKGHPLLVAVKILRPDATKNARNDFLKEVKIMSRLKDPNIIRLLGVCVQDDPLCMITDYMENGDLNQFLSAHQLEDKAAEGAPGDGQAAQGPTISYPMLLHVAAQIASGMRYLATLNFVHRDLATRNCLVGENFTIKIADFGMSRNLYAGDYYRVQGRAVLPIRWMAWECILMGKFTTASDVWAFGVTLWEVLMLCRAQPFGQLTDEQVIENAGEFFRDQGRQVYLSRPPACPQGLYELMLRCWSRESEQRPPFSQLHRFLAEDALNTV

Row | SMILES | IC50 [1] [nM] | Dmax [2] [%] | IC50 [3] [nM]
1 | COc1cc2c(Oc3ccc(NC(=O)C4(C(=O)Nc5ccc(F)cc5)CC4)cc3)ccnc2cc1N1CCC(CN2CCN(CCNc3cc4c(cn3)CN(C3CCC(=O)NC3=O)C4=O)CC2)CC1 (stereo not drawn) [TPD12009] | ≤ 100 | 65 to 75 | ≤ 100
2 | COc1cc2c(Oc3ccc(NC(=O)C4(C(=O)Nc5ccc(F)cc5)CC4)cc3)ccnc2cc1NCCC(=O)N[C@H](C(=O)N1C[C@H](O)C[C@H]1C(=O)NCc1ccc(-c2scnc2C)cc1)C(C)(C)C [TPD5415] | 100 to 500 | 65 to 75 | 100 to 500
3 | COc1cc2c(Oc3ccc(NC(=O)C4(C(=O)Nc5ccc(F)cc5)CC4)cc3)ccnc2cc1N1CCC(CN2C[C@@H]3C[C@H]2CN3CCC(=O)Nc2ccc3c(c2)CN(C2CCC(=O)NC2=O)C3=O)CC1 (stereo partly drawn) [TPD12218] | ≤ 100 | 65 to 75 | ≤ 100
4 | COc1cc2c(Oc3ccc(NC(=O)C4(C(=O)Nc5ccc(F)cc5)CC4)cc3)ccnc2cc1N1CCC(CN2CC3CC(C2)N3CCCNc2cc3c(cn2)C(=O)N(C2CCC(=O)NC2=O)C3)CC1 (stereo not drawn) [TPD12118] | ≤ 100 | 65 to 75 | ≤ 100
5 | COc1cc2c(Oc3ccc(NC(=O)C4(C(=O)Nc5ccc(F)cc5)CC4)cc3)ccnc2cc1N1CCC(NC(=O)C2(C(=O)N[C@H](C(=O)N3C[C@H](O)C[C@H]3C(=O)NCc3ccc(-c4scnc4C)cc3)C(C)(C)C)CC2)CC1 [TPD5424] | 1000 to 3000 | 65 to 75 | 500 to 1000
6 | COc1cc2c(Oc3ccc(NC(=O)C4(C(=O)Nc5ccc(F)cc5)CC4)cc3)ccnc2cc1NC(=O)CN1CCN(CC2CCN(c3ccc4c(c3)C(=O)N(C3CCC(=O)NC3=O)C4=O)CC2)CC1 (stereo not drawn) [TPD5746] | 100 to 500 | 75 to 85 | 500 to 1000
7 | COc1cc2c(Oc3ccc(NC(=O)C4(C(=O)Nc5ccc(F)cc5)CC4)cc3)ccnc2cc1N1CCC(CN2C3CC2CN(CC(=O)Nc2cc4c(cn2)C(=O)N(C2CCC(=O)NC2=O)C4)C3)CC1 (stereo not drawn) [TPD12083] | ≤ 100 | 65 to 75 | ≤ 100
8 | COc1cc2c(Oc3ccc(NC(=O)C4(C(=O)Nc5ccc(F)cc5)CC4)cc3)ccnc2cc1N1CCC(OCC(=O)N[C@H](C(=O)N2C[C@H](O)C[C@H]2C(=O)NCc2ccc(-c3scnc3C)cc2)C(C)(C)C)CC1 [TPD5411] | 100 to 500 | 75 to 85 | 100 to 500
9 | COc1cc2c(Oc3ccc(NC(=O)C4(C(=O)Nc5ccc(F)cc5)CC4)cc3)ccnc2cc1N1CCC(CN2C[C@H]3C[C@@H]2CN3CCC(=O)Nc2cc3c(cn2)C(=O)N(C2CCC(=O)NC2=O)C3)CC1 (stereo partly drawn) [TPD12110] | ≤ 100 | 75 to 85 | ≤ 100
10 | O=C1CCC(N2Cc3cc(NC(=O)CCN4CC5CC(C4)N5CC4CCN(c5cc6nccc(Oc7ccc(NC(=O)C8(C(=O)Nc9ccc(F)cc9)CC8)cc7)c6cc5OC(F)(F)F)CC4)ncc3C2=O)C(=O)N1 (stereo not drawn) [TPD12148] | ≤ 100 | 65 to 75 | ≤ 100
11 | COc1cc2c(Oc3ccc(NC(=O)C4(C(=O)Nc5ccc(F)cc5)CC4)cc3)ccnc2cc1N1CCC(CN2C[C@@H]3C[C@H]2CN3CC(=O)Nc2cc3c(cn2)C(=O)N(C2CCC(=O)NC2=O)C3)CC1 (stereo partly drawn) [TPD12100] | ≤ 100 | 65 to 75 | ≤ 100
12 | COc1cc2c(Oc3ccc(NC(=O)C4(C(=O)Nc5ccc(F)cc5)CC4)cc3)ccnc2cc1COCCN1CCC(OCCC(=O)N[C@H](C(=O)N2C[C@H](O)C[C@H]2C(=O)NCc2ccc(-c3scnc3C)cc2)C(C)(C)C)CC1 [TPD5305] | 100 to 500 | 65 to 75 | 100 to 500
13 | COc1cc2c(Oc3ccc(NC(=O)C4(C(=O)Nc5ccc(F)cc5)CC4)cc3)ccnc2cc1N1CCC(CN2CCN(CCNc3cc4c(cn3)C(=O)N(C3CCC(=O)NC3=O)C4)CC2)CC1 (stereo not drawn) [TPD12003] | ≤ 100 | 75 to 85 | ≤ 100
14 | COc1cc2nccc(Oc3ccc(NC(=O)C4(C(=O)Nc5ccc(F)cc5)CC4)cc3)c2cc1OC [cabozantinib, reference compound] | ≤ 100 | < 50 | ≤ 100
15 | COc1cc2c(Oc3ccc(NC(=O)C4(C(=O)Nc5ccc(F)cc5)CC4)cc3)ccnc2cc1N1CCC(CC(=O)N[C@H](C(=O)N2C[C@H](O)C[C@H]2C(=O)NCc2ccc(-c3scnc3C)cc2)C(C)(C)C)CC1 [TPD5410] | ≤ 100 | 65 to 75 | ≤ 100
16 | COc1cc2c(Oc3ccc(NC(=O)C4(C(=O)Nc5ccc(F)cc5)CC4)cc3)ccnc2cc1N1CCC(CN2CCN(CCNc3nccc4c3CN(C3CCC(=O)NC3=O)C4=O)CC2)CC1 (stereo not drawn) [TPD12001] | ≤ 100 | 65 to 75 | ≤ 100
17 | COc1cc2c(Oc3ccc(NC(=O)C4(C(=O)Nc5ccc(F)cc5)CC4)cc3)ccnc2cc1N1CCC(CN2C3CC2CN(CCNc2cc4c(cn2)C(=O)N(C2CCC(=O)NC2=O)C4)C3)CC1 (stereo not drawn) [TPD12081] | ≤ 100 | 75 to 85 | ≤ 100
18 | COc1cc2c(Oc3ccc(NC(=O)C4(C(=O)Nc5ccc(F)cc5)CC4)cc3)ccnc2cc1COCCN1CCC(OCCCNc2ccc3c(c2)C(=O)N(C2CCC(=O)NC2=O)C3=O)CC1 (stereo not drawn) [TPD5315] | 100 to 500 | > 85 | 100 to 500
19 | COc1cc2c(Oc3ccc(NC(=O)C4(C(=O)Nc5ccc(F)cc5)CC4)cc3)ccnc2c(F)c1N1CCC(CN2C3CC2CN(CCC(=O)Nc2cc4c(cn2)C(=O)N(C2CCC(=O)NC2=O)C4)C3)CC1 (stereo not drawn) [TPD12139] | ≤ 100 | 75 to 85 | ≤ 100
20 | CNC(=O)c1ccc(-c2cnc3ncc(Cc4ccc5ncc(C(=O)N6CCC(CN7CCN(CC(=O)N[C@H](C(=O)N8C[C@H](O)C[C@H]8C(=O)NCc8ccc(-c9scnc9C)cc8)C(C)(C)C)CC7)CC6)cc5c4)n3n2)cc1F [TPD9006] | ≤ 100 | 75 to 85 | 100 to 500
